How the values were obtained:
SNU-C1 [1] = assay: Cell mobility (transwell) of irradiated SNU-C1 cells; format: cell-based, human; conditions: SNU-C1, 10 Gy, 10 μM, 24 hours
Description: (§1) Cell mobility was measured using a 24 mm transwell with […]. After stabilizing the cells irradiated with 10 Gy of radiation for 24 hours, the cells were suspended in a medium and seeded in the upper chamber of the transwell, and the lower chamber was filled with a medium containing 10% fetal bovine serum (FBS) and 10 μM butyric acid (BA), ginsenosides Rh1, Rh2, Ro, Rb1, curcumin (CU), and sucralfate (SCF) either alone or in combination, and culturing was performed. After 24 hours of culture, the downside of the transwell was stained with crystal violet dye, and the stained cells were counted by observing them with an inverted microscope.

HUVEC = assay: Vascular endothelial cell tube formation after irradiation; format: cell-based, human; conditions: irradiated HUVEC, 10 μM, alone or in combination
Description: After irradiating human umbilical endothelial cells (HUVEC) with 10 Gy of radiation, the cells were seeded on a matrigel-coated u-slide, and were treated with 10 μM of curcumin (CU), butyric acid (BA), sucralfate (SCF), ginsenosides Rh1, Rh2, Rb1, or Ro either alone or in combination.
It was investigated whether a treatment with curcumin (CU), butyric acid (BA), sucralfate (SCF), and ginsenoside Rh1 (Rh1) alone or in combination restored the function of HUVEC cells damaged by radiation.

[2] = system: human dermal fibroblasts (HDF); assay: Cell mobility (transwell) of irradiated human dermal fibroblasts; format: cell-based; conditions: 10 μM, alone or in combination
Description: as §1

HCT116 [3] = assay: Cell mobility (transwell) of irradiated HCT116 cells; format: cell-based, human; conditions: HCT116, 10 Gy, 10 μM, 24 hours
Description: as §1
The experiment was conducted using the same manner as Experimental Example 3, except that the effective agents for treatment were a combination of curcumin, butyric acid, sucralfate, and ginsenoside.

SNU-C1 [4] = assay: Cell viability (Cell Counting Kit-8) of irradiated SNU-C1 cells; format: cell-based, human; conditions: SNU-C1, 10 Gy, 48 hours
Description: (§2) Human colon cancer cell lines (HCT116 and SNU-C1), a human dermal fibroblast cell line and a human keratinocyte cell line (HaCaT) were cultured in Dulbecco's modified eagles medium-high glucose (DMEM) containing 10% fetal bovine serum (FBS), 100 units/mL penicillin, and 100 μg/mL streptomycin. A Human umbilical vascular endothelial cell line (HUVEC) was cultured in a vascular cell basal medium (ATCC) containing Endothelial cell growth kit-VEGF (ATCC). All of the above cells were cultured in a 5% CO2 cell incubator at 37° C.
(§3) Cell viability test was performed using Cell Counting Kit-8. HCT116 and SNU-C1 cell lines, which are colon cancer cells, were seeded on 60 mm culture dishes and cultured, and then irradiated with 10 Gy of radiation. The cells were harvested, seeded on 96-well culture plates, and incubated, and then the cells were treated with butyric acid (BA), ginsenosides Rh1, Rh2, Ro, Rb1, and curcumin (CU) at concentrations of 5, 10, or 50 μM, respectively. After 48 hours, cell viability was analyzed using Cell Counting Kit-8 and a microplate reader.
(§4) In order to investigate the effects of curcumin (CU), butyric acid (BA), and ginsenoside on the decreased cell viability due to irradiation, HCT116 and SNU-C1 cells were treated with curcumin, butyric acid, ginsenoside Rh1, Rh2, Ro, or Rb1 at concentrations of 5, 10, and 50 μM, respectively, and the viability of each cell was measured (FIGS. 1 and 2).

HCT116 [5] = assay: Cell viability (Cell Counting Kit-8) of irradiated HCT116 cells; format: cell-based, human; conditions: HCT116, 10 Gy, 48 hours
Description: as §2, §3, §4

skin of irradiated mice = conditions: cited from earlier work
[6] = system: intestinal epithelial cells; conditions: cited from earlier work
[7] = system: radiation proctitis model mouse; assay: Radiation proctitis model mouse: pathological morphology of colon and rectal tissue (H&E); format: in vivo; conditions: 27 Gy, intrarectal, 14 days, vs irradiated group (IR)
Description: by administration of combination drug to proctitis model mouse C57BL/6 mice (5 weeks old, female) were irradiated with 27 Gy of radiation, and then divided into test groups as shown in Table 4 and FIG. 13. From the next day, samples prepared at concentrations as shown in Table 5 and FIG. 14 (formulated using the method of Example 1) were administered intrarectally at 2-3 day intervals for a total of 6 times (FIG. 16).
The efficacy of the treated samples was confirmed 14 days after the final radiation. In this case, except for the non-irradiated group (n=5), all test treatment groups were conducted with 7 mice per group. A flexible plastic tube was inserted into the rectum for administration, and a formulation containing approximately 50 μl of the compound was administered per mouse at a time.
In addition, pathological morphological analysis of the intestinal tissue was performed by observing the morphology of each treatment group through a microscope after performing H&E staining.
Specifically, the extracted organs were fixed in 10% formalin and paraffin blocks were created (STP120 Spin tissue Processor, Myr). Thereafter, sections were mounted on slides using a microtome (Finesse ME Microtome, Thermo Shandon), dried, deparaffinized and hydrated to create tissue slides. […]

[8] = 5 μM or 10 μM, vs irradiated group

CC(C)=CCC[C@](C)(O[C@@H]1O[C@H](CO[C@@H]2O[C@H](CO)[C@@H](O)[C@H](O)[C@H]2O)[C@@H](O)[C@H](O)[C@H]1O)[C@H]1CC[C@]2(C)[C@@H]1[C@H](O)C[C@@H]1[C@@]3(C)CC[C@H](O[C@@H]4O[C@H](CO)[C@@H](O)[C@H](O)[C@H]4O[C@@H]4O[C@H](CO)[C@@H](O)[C@H](O)[C@H]4O)C(C)(C)[C@@H]3CC[C@]12C [Rb1, ginsenoside Rb1]
cell mobility rate compared to the irradiated group (SNU-C1 [1]): significantly increased

CC(C)=CCC[C@](C)(O)[C@H]1CC[C@]2(C)C1[C@H](O)C[C@@H]1[C@@]3(C)CC[C@H](O)C(C)(C)[C@@H]3[C@@H](O[C@@H]3O[C@H](CO)[C@@H](O)[C@H](O)[C@H]3O)C[C@]12C (stereo partly shown) [Rh1, ginsenoside Rh1]
Tube length (%), average value (HUVEC): 15%
Mobility rate (%), average value [2]: 99%

CC(C)=CCC[C@](C)(O)[C@H]1CC[C@]2(C)[C@@H]1[C@H](O)C[C@@H]1[C@@]3(C)CC[C@H](O[C@@H]4O[C@H](CO)[C@@H](O)[C@H](O)[C@H]4O)C(C)(C)[C@@H]3CC[C@]12C [Rh2, ginsenoside Rh2]
cell mobility rate compared to the irradiated group (HCT116 [3]): highest cell mobility recovery rate
cell viability compared to the irradiated group (SNU-C1 [4]; 50 μM): lower cell viabilities than the irradiated group
cell viability compared to the irradiated group (HCT116 [5]; 50 μM): lower cell viabilities than the irradiated group

CC1(C)CC[C@]2(C(=O)O[C@@H]3O[C@H](CO)[C@@H](O)[C@H](O)[C@H]3O)CC[C@]3(C)C(=CC[C@@H]4[C@@]5(C)CC[C@H](O[C@@H]6O[C@H](C(=O)O)[C@@H](O)[C@H](O)[C@H]6O[C@@H]6O[C@H](CO)[C@@H](O)[C@H](O)[C@H]6O)C(C)(C)[C@@H]5CC[C@]43C)[C@@H]2C1 [Ro, ginsenoside Ro]
cell viability compared to the irradiated group (SNU-C1 [4]; 5 μM): lower cell viabilities than the irradiated group
cell viability compared to the irradiated group (HCT116 [5]; 5 μM): lower cell viabilities than the irradiated group

CCCC(=O)O [butyric acid, Butyric acid]
cell mobility rate compared to the irradiated group (HCT116 [3]): double increase
Tube length (%), average value (HUVEC): 14%
Mobility rate (%), average value [2]: 76%

COc1cc(/C=C/C(=O)CC(=O)/C=C/c2ccc(O)c(OC)c2)ccc1O [curcumin]
cell mobility rate compared to the irradiated group (HCT116 [3]): double increase
cell viability decreased by irradiation (SNU-C1 [4]; [8]): significantly increased
cell viability compared to the irradiated group (SNU-C1 [4]; 50 μM): lower cell viabilities than the irradiated group
cell mobility rate compared to the irradiated group (SNU-C1 [1]): significantly increased
skin damage (skin of irradiated mice; irradiated mice): restoring skin damage
expression of inflammatory cytokines and fibrogenic cytokines (skin of irradiated mice; skin of irradiated mice): reducing the expression
cell viability decreased by irradiation (HCT116 [5]; [8]): significantly increased
cell viability compared to the irradiated group (HCT116 [5]; 50 μM): lower cell viabilities than the irradiated group
Tube length (%), average value (HUVEC): 15%
Mobility rate (%), average value [2]: 130%

CC(C)=CCC[C@](C)(O[C@@H]1O[C@H](CO)[C@@H](O)[C@H](O)[C@H]1O)[C@H]1CC[C@]2(C)[C@@H]1[C@H](O)C[C@@H]1[C@@]3(C)CC[C@H](O[C@@H]4O[C@H](CO)[C@@H](O)[C@H](O)[C@H]4O[C@@H]4O[C@H](CO)[C@@H](O)[C@H](O)[C@H]4O)C(C)(C)[C@@H]3CC[C@]12C [ginsenoside Rd]
apoptosis induced by irradiation [6]: inhibit apoptosis

Sucralfate [reference compound]
epithelium loss and crypt damage induced by irradiation [7]: recovered in all sample treatment groups except the sucralfate treatment group
Tube length (%), average value (HUVEC): 14%
Mobility rate (%), average value [2]: 91%

From patent US20250213592A1, “PHARMACEUTICAL COMPOSITION COMPRISING CURCUMIN AND GINSENOSIDE, AND FORMULATION THEREOF” (CORESTEMCHEMON INC., priority 2022, published 2025)
